Results taken from article PMC6467542 (Bioorganic & Medicinal Chemistry, 2019).
Values after ≈ are worked out from the molar mass of the structure shown.

Experiments:
M. tb (strain H37Rv) [1] = test: MIC90 against replicating M.tb (MABA); type: cell-based, Mycobacterium tuberculosis; conditions: aerobic (replicating) conditions, 90% inhibition of growth; for MIC90: Mycobacterium tuberculosis
M. tb (strain H37Rv) [2] = test: MIC90 against non-replicating M.tb (LORA); type: cell-based, Mycobacterium tuberculosis; conditions: for MIC90: Mycobacterium tuberculosis, H37RV, read-out: MIC90 LORA
Procedure: In these assays, 1 is a potent inhibitor, with MICs of 0.08 and 0.12 µg/mL, respectively. Replacement of the naphthalene C-unit of 1 with various pyridyls produced analogues of considerably lower lipophilicity, with clogP values ranging from 6.89 down to 2.98.

in vitro [3] = conditions: human, microsomes
in vitro [4] = conditions: mouse, microsomes
hERG potassium channel = hERG potassium channel (Homo sapiens, UniProt Q12809); test: Inhibition of hERG potassium current (patch clamp electrophysiology); conditions: for hERG % inhibition at 3 µM: manual or (less accurate) QPatch assay
Chain of hERG potassium channel (Q12809 whole entry): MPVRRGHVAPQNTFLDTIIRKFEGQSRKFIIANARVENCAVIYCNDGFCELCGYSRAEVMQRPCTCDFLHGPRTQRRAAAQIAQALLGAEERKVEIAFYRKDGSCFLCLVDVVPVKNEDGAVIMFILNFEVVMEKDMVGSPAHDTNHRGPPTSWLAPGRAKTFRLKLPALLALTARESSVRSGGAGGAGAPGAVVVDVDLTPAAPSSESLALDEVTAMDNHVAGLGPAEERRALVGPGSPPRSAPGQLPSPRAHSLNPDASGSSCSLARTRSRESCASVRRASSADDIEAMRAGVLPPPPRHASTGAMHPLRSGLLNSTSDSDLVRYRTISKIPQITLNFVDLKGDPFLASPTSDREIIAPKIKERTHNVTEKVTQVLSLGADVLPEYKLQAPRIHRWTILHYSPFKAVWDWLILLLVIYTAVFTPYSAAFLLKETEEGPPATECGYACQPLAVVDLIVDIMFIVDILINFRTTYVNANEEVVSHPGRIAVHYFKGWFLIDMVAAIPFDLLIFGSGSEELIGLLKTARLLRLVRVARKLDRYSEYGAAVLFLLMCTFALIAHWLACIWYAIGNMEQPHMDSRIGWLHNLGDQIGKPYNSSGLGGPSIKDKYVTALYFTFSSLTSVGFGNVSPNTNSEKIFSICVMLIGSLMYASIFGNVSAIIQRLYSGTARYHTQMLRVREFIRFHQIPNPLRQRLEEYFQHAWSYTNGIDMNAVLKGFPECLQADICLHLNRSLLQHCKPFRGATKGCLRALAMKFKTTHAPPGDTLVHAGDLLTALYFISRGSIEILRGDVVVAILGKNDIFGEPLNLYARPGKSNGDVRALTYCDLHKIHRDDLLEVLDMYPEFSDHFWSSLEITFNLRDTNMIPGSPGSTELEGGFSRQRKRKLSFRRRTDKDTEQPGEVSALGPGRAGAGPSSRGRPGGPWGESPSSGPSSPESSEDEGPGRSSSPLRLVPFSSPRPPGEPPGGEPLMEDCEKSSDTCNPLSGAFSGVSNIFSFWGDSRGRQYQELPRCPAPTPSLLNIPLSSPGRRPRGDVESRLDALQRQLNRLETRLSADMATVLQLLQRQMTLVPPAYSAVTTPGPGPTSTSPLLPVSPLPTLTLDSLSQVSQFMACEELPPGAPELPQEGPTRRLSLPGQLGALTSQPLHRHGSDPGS

[5] = mouse, in vivo

Compound | MIC90 (M. tb (strain H37Rv) [1]) [µg/mL] | MIC90 (M. tb (strain H37Rv) [2]) [µg/mL] | other results
1-(7-bromo-3-methoxynaphthalen-2-yl)-1-(2,3-dimethoxyphenyl)-4-(dimethylamino)-2-(2,6-dimethylpyridin-4-yl)butan-2-ol [Compound 56] |  |  | MIC90 MABA (M. tb (strain H37Rv) [1]): 0.04 µg/mL; MIC90 LORA (M. tb (strain H37Rv) [2]; M.tb H37Rv, non-replicating conditions, 90% inhibition of growth): 0.07 µg/mL
COc1cccc(C(c2cc3cc(Br)ccc3nc2OC)C(O)(CCN(C)C)c2cccc(C)n2)c1OC (centres unmarked) [Compound 2] | 0.4 (≈ 0.689 µM) | 0.13 (≈ 0.224 µM) | 
COc1cccc(C(c2cc3cc(C#N)ccc3nc2OC)C(O)(CCN(C)C)c2cccc(C)n2)c1OC (centres unmarked) [Compound 3] | 4.1 (≈ 7.79 µM) | 1.9 (≈ 3.61 µM) | 
COc1cccc(C(c2cc3cc(Br)ccc3nc2OC)C(O)(CCN(C)C)c2cccc(C)n2)c1F (centres unmarked) [Compound 4] | 0.29 (≈ 0.51 µM) | 2 (≈ 3.52 µM) | microsomal CLint (in vitro [3]): 10 µL/min/mg; microsomal CLint (in vitro [4]): 39 µL/min/mg; hERG % inhibition at 3 µM (hERG potassium channel): 34%/3
COc1cccc(C(c2cc3cc(C#N)ccc3nc2OC)C(O)(CCN(C)C)c2cccc(C)n2)c1F (centres unmarked) [Compound 5] | 1.1 (≈ 2.14 µM) | 1.8 (≈ 3.5 µM) | 
COc1cccc(C(c2cc3cc(Br)ccc3nc2OC)C(O)(CCN(C)C)c2cc(C)ccn2)c1F (centres unmarked) [Compound 6] | 0.6 (≈ 1.06 µM) | 2.1 (≈ 3.69 µM) | 
COc1cccc(C(c2cc3cc(Br)ccc3nc2OC)C(O)(CCN(C)C)c2ncccc2C)c1F (centres unmarked) [Compound 7] | 0.19 (≈ 0.334 µM) | 0.4 (≈ 0.704 µM) | 
COc1cccc(C(c2cc3cc(C#N)ccc3nc2OC)C(O)(CCN(C)C)c2ncccc2C)c1F (centres unmarked) [Compound 8] | 3 (≈ 5.83 µM) | 3.5 (≈ 6.8 µM) | 
COc1cccc(C(c2cc3cc(Br)ccc3nc2OC)C(O)(CCN(C)C)c2cc(C)cc(C)n2)c1OC (centres unmarked) [Compound 9] | 0.28 (≈ 0.471 µM) | 0.3 (≈ 0.505 µM) | 
COc1cccc(C(c2cc3cc(C#N)ccc3nc2OC)C(O)(CCN(C)C)c2cc(C)cc(C)n2)c1OC (centres unmarked) [Compound 10] | 0.54 (≈ 0.999 µM) | 0.62 (≈ 1.15 µM) | 
COc1cccc(C(c2cc3cc(Br)ccc3nc2OC)C(O)(CCN(C)C)c2cc(C)cc(C)n2)c1F (centres unmarked) [Compound 11] | 0.14 (≈ 0.24 µM) | 0.11 (≈ 0.189 µM) | 
COc1cccc(C(c2cc3cc(C#N)ccc3nc2OC)C(O)(CCN(C)C)c2cc(C)cc(C)n2)c1F (centres unmarked) [Compound 12] | 2.3 (≈ 4.35 µM) | 2.8 (≈ 5.3 µM) | 
COc1cccc(C(c2cc3cc(Br)ccc3nc2OC)C(O)(CCN(C)C)c2ncc(C)cc2C)c1F (centres unmarked) [Compound 13] | 0.3 (≈ 0.515 µM) | 0.46 (≈ 0.79 µM) | 
COc1cccc(C(O)(CCN(C)C)C(c2cccc(C)c2)c2cc3cc(C#N)ccc3nc2OC)n1 (centres unmarked) [Compound 14] | 0.6 (≈ 1.21 µM) | 0.29 (≈ 0.584 µM) | 
COc1cccc(C(O)(CCN(C)C)C(c2cc3cc(C#N)ccc3nc2OC)c2cccc3c2OCO3)n1 (centres unmarked) [Compound 16] | 1.2 (≈ 2.28 µM) |  | 
COc1ccnc(C(O)(CCN(C)C)C(c2cc3cc(Br)ccc3nc2OC)c2cccc(OC)c2F)c1 (centres unmarked) [Compound 17] | 1.2 (≈ 2.05 µM) | 0.61 (≈ 1.04 µM) | 
COc1ccnc(C(O)(CCN(C)C)C(c2cc3cc(C#N)ccc3nc2OC)c2cccc(OC)c2F)c1 (centres unmarked) [Compound 18] | 2.3 (≈ 4.33 µM) | 2.2 (≈ 4.15 µM) | 
COc1cccc(C(c2cc3cc(Br)ccc3nc2OC)C(O)(CCN(C)C)c2cccnc2C)c1OC (centres unmarked) [Compound 20] | 0.3 (≈ 0.517 µM) | 0.59 (≈ 1.02 µM) | 
COc1nc2ccc(Br)cc2cc1C(c1cccc2c1OCO2)C(O)(CCN(C)C)c1cccnc1C (centres unmarked) [Compound 21] | 0.45 (≈ 0.797 µM) | 0.56 (≈ 0.992 µM) | AUC: exposure, AUCinf [5]: 820 ng·h/mL; IV Cl: IV clearance ([5]; iv): 44 mL/min/kg; Vz: IV apparent volume of distribution during terminal phase ([5]; iv): 21 L/kg; F: oral bioavailability ([5]; po): 19%; microsomal CLint (in vitro [3]): 71 µL/min/mg; microsomal CLint (in vitro [4]): 51 µL/min/mg; hERG % inhibition at 3 µM (hERG potassium channel): 13%/3
COc1cccc(C(c2cc3cc(C#N)ccc3nc2OC)C(O)(CCN(C)C)c2ccc(C)nc2)c1F (centres unmarked) [Compound 23] | 4.7 (≈ 9.13 µM) | > 5 | 
COc1cccc(C(c2cc3cc(Br)ccc3nc2OC)C(O)(CCN(C)C)c2ccc(C)nc2)c1OC (centres unmarked) [Compound 24] | 0.6 (≈ 1.03 µM) | 0.51 (≈ 0.879 µM) | 
COc1cccc(C(c2cc3cc(C#N)ccc3nc2OC)C(O)(CCN(C)C)c2ccc(C)nc2)c1OC (centres unmarked) [Compound 25] | > 5 |  | 
COc1nc2ccc(Br)cc2cc1C(c1cccc(F)c1)C(O)(CCN(C)C)c1cncc(C)c1 (centres unmarked) [Compound 26] | 0.28 (≈ 0.52 µM) | 0.08 (≈ 0.149 µM) | 
COc1nc2ccc(C#N)cc2cc1C(c1cccc(F)c1)C(O)(CCN(C)C)c1cncc(C)c1 (centres unmarked) [Compound 27] | 1.2 (≈ 2.48 µM) | 0.98 (≈ 2.02 µM) | microsomal CLint (in vitro [3]): 122 µL/min/mg; microsomal CLint (in vitro [4]): 249 µL/min/mg; hERG % inhibition at 1 µM (hERG potassium channel; 1 µM, manual assay): 42%/1
